Assays:
[1] = Absorbance in 1,4-dioxane-water mixtures (D50, spirolactone-zwitterion equilibrium); assay type: physicochemical; details: 1,4-Dioxane-Water with constant 0.3% SDS additive; dielectric constant at which absorbance is halved
Method: The D50 values indicated herein are determined by measuring the respective absorbance of a sample (dye isomer or derivative or conjugate thereof), in varied water-1,4-dioxane mixtures with known dielectric constants according to an established method (e.g. Åkerlöf G, Short AO. J Am Chem Soc 1936, 58(7): 1241-1243). D50 is commonly used as numeric value for the evaluation of the equilibrium changes and represents a dielectric constant at which absorbance is halved (Butkevich A. N.; Mitronova G. Y.; Sidenstein. S. C.; Klocke J. L.; Kamin D.; Meineke D. N. H.; D'Este E.; Kraemer P. T.; Danzl J. G.; Belov V. N.; Hell S. W., Angew. Chem. Int. Ed. 2016, 55, 3290-3294).
The D50 values were calculated using the following equation:
(§1) where A0—absorbance at λmax at εr=0, λmax—the highest reached absorbance at λmax, d—dielectric constant of 1,4-dioxane-water mixture at a given point, Hill—Hill slope coefficient determining the steepness of a dose-response curve, D50—corresponds to d value that provokes half of the absorbance amplitude (λmax−A0).
Measurements of the absorbance changes in 1,4-dioxane-water mixtures were performed by pipetting 2 μL stock solutions of dyes or probes in DMSO into a 96 glass bottom well plate (11 wells per sample) made from propylene (Corning 3364). To the wells going from right to left 300 μL of 1,4-dioxane-water mixtures containing 100%, 90%, 80%, 70%, 60%, 50%, 40%, 30%, 20%, 10% or 0% 1,4-dioxane was added (if needed, mixtures with 0.3% SDS are used, with an exception in 100% dioxane due to solubility issues). After incubation for 1 hour at room temperature, absorption of solutions in each well was recorded from 320 nm to 850 nm with wavelength step size of 1 nm on a multiwell plate reader Spark® 20M (Tecan). The background absorption of the glass bottom plate was measured in wells containing only 1,4-dioxane-water mixture with similar amount of DMSO and subtracted from the spectra of the samples. […]
as §1, with “λmax.” for “λmax,”
The ability of the fluorophores to switch between spirolactone and zwitterion states can be characterized by measuring the absorbance in water-1,4-dioxane mixtures with known dielectric constant (Åkerlöf G, Short A O. J Am Chem Soc 1936, 58(7): 1241-1243). D50 is commonly used as numeric value for the evaluation of the equilibrium changes and represents a dielectric constant at which absorbance is halved.

[2] = test system: HeLa cells; experiment: Cell cycle analysis by imaging flow cytometry and EC50 determination (subG1 cells, cytotoxicity of tubulin probes); assay type: cell-based; details: 24 h incubation at 37° C. in growth media; compared with parent compound larotaxel
Method: HeLa cells were grown in 6-well plates (^˜250.000 cells per well) for 24 h in the presence of the fluorescent probe in variable concentrations. The probes were dissolved in DMSO at 500-2000-fold stock concentration and added to the media of cultured cells at 500-2000-fold dilution accordingly. In parallel, the appropriate DMSO control samples were prepared by adding corresponding amount of DMSO volume to the separate well. Cells were processed according to the NucleoCounter® NC-3000™ two-step cell cycle analysis protocol for cells attached to T-flasks, cell culture plates or micro-carriers. […] Cells were counted on a NucleoCounter® NC-3000™ in NC-Slide A2™ slides (Chemometec, Cat. No. 942-0001) loaded with ˜30 μl of each of the cell suspensions into the chambers of the slide. Each time, ^˜10.000 cells in total were measured, and the obtained cell cycle histograms were analysed with ChemoMetec NucleoView NC-3000 software, version 2.1.25.8. […] The EC50 values were determined by plotting the percentage of cells in subG1 phase and fitting the curve in GraphPad Prism 6 to the following function: […]
As mentioned above, FIG. 3. illustrates the tubulin labelling of mammalian cells: a, structures of the tubulin probes. b, Wide-field fluorescence microscopy of living primary fibroblasts stained 100 nM TMR-LTX isomers for 1 h at 37° C. […]

[3] = test system: tubulin; experiment: Wide-field fluorescence microscopy of living primary fibroblasts stained with tubulin probes; assay type: cell-based, human
Method: Human primary dermal fibroblasts and HeLa cells were cultured in high-glucose DMEM (Life Technologies, Cat. No. 31053-028) supplemented with GlutaMAX-1 (Life Technologies, Cat. No. 35050-038) and 10% fetal bovine serum (FBS, Life Technologies, Cat. No. 10270-106) in a humidified 5% CO2 incubator at 37° C. The cells were split every 3-4 days or at confluence. Cells were seeded in glass bottom 12-well plates (MatTek Corporation, Cat. No. P12G-1.0-14-F).
Cells were stained with the fluorescent probes in DMEM (Thermo Fisher Scientific, Cat. No. 31053-028) supplemented with 10% FBS (Thermo Fisher Scientific, Cat. No. 10082139) at 37° C. and 5% CO2. […]
Actin/tubulin cytosolic signal was estimated using CellProfiler v.3.1.8. […] The background was subtracted from the original probe channel, and actin/tubulin staining was measured as mean pixel intensity per object in background-corrected probe channel. […]
As mentioned above, FIG. 3. illustrates the tubulin labelling of mammalian cells: a, structures of the tubulin probes. b, Wide-field fluorescence microscopy of living primary fibroblasts stained 100 nM TMR-LTX isomers for 1 h at 37° C. […] Hoechst staining is shown in cyan and all tubulin probes were shown in magenta. c, Quantification of fluorescence signal in the cytoplasm of living cells stained with tubulin probes. […]

Row | Structure (SMILES) | D50 [1] | EC50, accumulation of subG1 phase cells (cytotoxicity) [2] | membrane permeability ([3]; living cells, 100 nM probe, 1 h at 37° C., compared to 5′- and 6′-isomers) | tubulin labelling specificity ([3]; mammalian cells, simple incubation with probe)
1 | CNc1ccc2c(c1)C(C)(C)c1cc(NC)ccc1C21OC(=O)c2c(C(=O)NCCCCCCCC(=O)N[C@@H](c3ccccc3)[C@@H](O)C(=O)O[C@H]3C[C@@]4(O)[C@@H](OC(=O)c5ccccc5)[C@@H]5[C@]6(OC(C)=O)CO[C@@H]6C[C@@H]6C[C@@]65C(=O)[C@H](OC(C)=O)C(=C3C)C4(C)C)cccc21 [580CP-LTX 4′-isomer] | 62 ± 1 |  |  | 
2 | CO[C@H]1C(=O)[C@]2(C)[C@@H](OC)C[C@H]3OC[C@@]3(OC(C)=O)[C@H]2[C@H](OC(=O)c2ccccc2)[C@]2(O)C[C@H](OC(=O)[C@H](O)[C@@H](NC(=O)CCCCCCCNC(=O)c3cccc4c3C(=O)OC43c4ccc(N(C)C)cc4C(C)(C)c4cc(N(C)C)ccc43)c3ccccc3)C(C)=C1C2(C)C [610CP-CTX 4′-isomer] | 65 ± 2 |  |  | 
3 | CO[C@H]1C(=O)[C@]2(C)[C@@H](OC)C[C@H]3OC[C@@]3(OC(C)=O)[C@H]2[C@H](OC(=O)c2ccccc2)[C@]2(O)C[C@H](OC(=O)[C@H](O)[C@@H](NC(=O)CCCCCCCNC(=O)c3cccc4c3C(=O)OC43c4ccc(N(C)C)cc4[Si](C)(C)c4cc(N(C)C)ccc43)c3ccccc3)C(C)=C1C2(C)C [SiR-CTX 4′-isomer] | >80 |  |  | 
4 | CC(=O)O[C@H]1C(=O)[C@]23C[C@H]2C[C@H]2OC[C@@]2(OC(C)=O)[C@H]3[C@H](OC(=O)c2ccccc2)[C@]2(O)C[C@H](OC(=O)[C@H](O)[C@@H](NC(=O)CCCCCCCNC(=O)c3cccc4c3C(=O)OC43c4ccc(N(C)C)cc4Oc4cc(N(C)C)ccc43)c3ccccc3)C(C)=C1C2(C)C [TMR-LTX 4′-isomer] | 26.5 ± 0.5 | almost as efficiently as parent compound | excellent membrane permeability | highly specific tubulin labelling

— patent publication US20230104281A1, “FLUORESCENT RHODAMINE DYES WITH ENHANCED CELL PERMEABILITY” (Max-Planck-Gesellschaft zur Foerderung der Wissenschaften …, priority 2020, published 2023)
